Experimental data from paper PMC6930599, “Novel Flavonoid Glycosides of Quercetin from Leaves and Flowers of Gaiadendron punctatum G.Don. (Violeta de Campo), used by the Saraguro Community in Southern Ecuador, Inhibit α-Glucosidase Enzyme” (Molecules, 2019).

What was measured:
Assay type in all cases: biochemical
[1] = target: T1, α-glucosidase (Saccharomyces cerevisiae, Sigma G5003); test: p-nitrophenol release at […] nm, microplate; conditions: PNPG (20 μL of 5 mM), PBS pH 7.4, 37 °C, 5 min pre-incubation; error is SE; read-out: α-Glucosidase IC50 (SE) (mg/mL, μM†)
T1 construct: gene MAL12; commercial yeast enzyme preparation (Sigma)

[2] = target: T1, α-glucosidase (Saccharomyces cerevisiae, Sigma G5003); test: p-nitrophenol release at […] nm, progress curves at several PNPG and inhibitor concentrations; conditions: PNPG 1-15 mM, pH 7.4, 37 °C, unreliable: b44 prints another KI, Ki unit not printed (doses in μM)
[3] = system: T1, α-glucosidase (Saccharomyces cerevisiae, Sigma G5003); test: p-nitrophenol release at […] nm, initial PNPG varied; conditions: no inhibitor; PBS pH 7.4, 37 °C; error is SE

IC50 [1] [µM]	Ki ([2]; competitive in table, non-competitive in abstract)	Ki ([2]; non-competitive in table, competitive in abstract)	Km [3] [µM]	Compound
159				C[C@@H]1O[C@@H](OC[C@H]2O[C@@H](Oc3c(-c4ccc(O)cc4)oc4cc(O)cc(O)c4c3=O)[C@H](O)[C@@H](O)[C@@H]2O)[C@H](O)[C@H](O)[C@H]1O [compound 1, Nicotiflorin]
9.66	3.92 (1.48)			C[C@@H]1O[C@H](O[C@@H]2[C@@H](O)[C@H](O)[C@@H](COc3ccc(-c4oc5cc(O)cc(O)c5c(=O)c4O)cc3O)O[C@H]2O)[C@H](O)[C@H](O)[C@H]1O [compound 4, quercetin-4’-O-(2-O-β-rhamno-pyranosyl-6-β-glucopyranoside)]
16.9		12.29(1.58)		C[C@@H]1O[C@H](OC[C@H]2O[C@@H](Oc3c(-c4ccc(O)c(O)c4)oc4cc(O)cc(O)c4c3=O)[C@H](O[C@H]3O[C@@H](C)[C@H](O)[C@@H](O)[C@H]3O)[C@@H](O)[C@@H]2O)[C@H](O)[C@H](O)[C@H]1O [compound 5, quercetin-3-O-(2,6-di-O-β,β-rhamno-pyranosyl-β-glucopyranoside)]
			986	O=[N+]([O-])c1ccc(O[C@H]2O[C@H](CO)[C@@H](O)[C@H](O)[C@H]2O)cc1 [p-Nitrophenyl-α-D-glucopyranoside]
